Measured values as given in paper PMC4537572, “Cellobionic acid utilization: from Neurospora crassa to Saccharomyces cerevisiae” (Biotechnology for Biofuels, 2015).

Legend:
[1] = molecular target: T1, S. cerevisiae gluconokinase (YDR248C) (Saccharomyces cerevisiae, UniProt Q03786); assay: gluconokinase assay, HPAEC of products; format: biochemical; conditions: 1 mM gluconate, 5 mM ATP, 0.2 μM enzyme, 1x PBS, 30 °C, 30 min
T1 construct: full ORF with C-terminal His6-tag, expressed in and purified from S. cerevisiae
T1 sequence (Q03786 1-193): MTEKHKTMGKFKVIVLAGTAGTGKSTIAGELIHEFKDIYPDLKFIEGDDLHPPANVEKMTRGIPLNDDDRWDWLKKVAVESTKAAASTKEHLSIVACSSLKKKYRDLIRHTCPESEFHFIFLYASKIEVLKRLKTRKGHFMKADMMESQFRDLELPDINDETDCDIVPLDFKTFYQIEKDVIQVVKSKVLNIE

CAP (NCU09425) = CAP (NCU09425) (Neurospora crassa, UniProt Q7S0S2); conditions: 2 mM cellobionate, 0.5 μM enzyme, 1x PBS, 30 °C, 30 min
CBT-1 (NCU05853) = molecular target: T2, CBT-1 (NCU05853) (Neurospora crassa, UniProt Q7S555); assay: yeast cell-based uptake assay, HPAEC of remaining sugar; conditions: pH 6.0, 30 °C, 30 min; 5 mM MES, 100 mM NaCl; S. cerevisiae cells expressing the transporter
T2 construct: expressed in S. cerevisiae from plasmid pRS426_NCU05853
Excerpt: yeast cell-based uptake assay, HPAEC of remaining sugar on CBT-1 (NCU05853) | only NCU05853 […] was capable of transporting cellobionic acid into the cell

Chain of CAP (NCU09425) (Q7S0S2 whole entry): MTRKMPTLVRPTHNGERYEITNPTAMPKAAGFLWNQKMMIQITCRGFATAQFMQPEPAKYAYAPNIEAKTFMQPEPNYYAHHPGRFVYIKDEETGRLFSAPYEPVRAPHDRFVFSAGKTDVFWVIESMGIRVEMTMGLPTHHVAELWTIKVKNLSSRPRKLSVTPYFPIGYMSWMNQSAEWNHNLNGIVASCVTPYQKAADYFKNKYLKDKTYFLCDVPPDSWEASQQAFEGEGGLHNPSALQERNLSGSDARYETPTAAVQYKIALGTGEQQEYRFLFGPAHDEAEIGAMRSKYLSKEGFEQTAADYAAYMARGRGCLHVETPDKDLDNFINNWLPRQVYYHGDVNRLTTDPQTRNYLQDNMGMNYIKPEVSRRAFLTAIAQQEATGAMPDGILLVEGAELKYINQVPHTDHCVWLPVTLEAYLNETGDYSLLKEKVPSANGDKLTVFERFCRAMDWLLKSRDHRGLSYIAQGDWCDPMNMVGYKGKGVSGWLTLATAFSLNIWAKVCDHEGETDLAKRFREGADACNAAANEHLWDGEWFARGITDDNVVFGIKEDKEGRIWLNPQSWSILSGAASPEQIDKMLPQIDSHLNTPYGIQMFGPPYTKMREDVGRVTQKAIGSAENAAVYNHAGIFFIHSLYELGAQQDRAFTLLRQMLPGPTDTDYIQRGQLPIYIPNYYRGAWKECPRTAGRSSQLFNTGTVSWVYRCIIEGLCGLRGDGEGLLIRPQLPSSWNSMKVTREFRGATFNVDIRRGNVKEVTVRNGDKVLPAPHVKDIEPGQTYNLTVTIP
T2 sequence (Q7S555 entry or part of it): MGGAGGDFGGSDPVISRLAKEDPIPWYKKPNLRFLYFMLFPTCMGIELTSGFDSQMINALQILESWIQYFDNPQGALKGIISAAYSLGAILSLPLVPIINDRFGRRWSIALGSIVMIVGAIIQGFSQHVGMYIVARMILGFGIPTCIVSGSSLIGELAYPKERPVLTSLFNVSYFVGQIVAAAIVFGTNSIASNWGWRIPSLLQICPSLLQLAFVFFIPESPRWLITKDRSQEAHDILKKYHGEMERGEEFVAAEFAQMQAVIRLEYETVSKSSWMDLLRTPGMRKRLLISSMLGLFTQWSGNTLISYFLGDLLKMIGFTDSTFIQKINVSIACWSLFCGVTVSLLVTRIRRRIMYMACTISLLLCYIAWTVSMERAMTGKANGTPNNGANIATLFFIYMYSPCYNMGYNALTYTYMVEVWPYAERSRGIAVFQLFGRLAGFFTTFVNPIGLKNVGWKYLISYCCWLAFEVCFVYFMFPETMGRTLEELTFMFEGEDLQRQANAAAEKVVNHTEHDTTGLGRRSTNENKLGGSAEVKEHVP

| Structure (SMILES) | gluconokinase assay, HPAEC of products [1] | phosphorolysis, HPAEC of products (CAP (NCU09425)) | yeast cell-based uptake assay, HPAEC of remaining sugar (CBT-1 (NCU05853)) |
| --- | --- | --- | --- |
| O=C(O)[C@H](O)[C@@H](O)[C@H](O)[C@H](O)CO [A1, gluconic acid] | YDR248C has gluconokinase activity in vitro |  |  |
| O=C(O)[C@H](O)[C@@H](O)[C@H](O[C@@H]1O[C@H](CO)[C@@H](O)[C@H](O)[C@H]1O)[C@H](O)CO [A2, cellobionic acid] |  | specifically cleaved cellobionic acid to gluconic acid and glucose 1-phosphate | only NCU05853 [...] was capable of transporting cellobionic acid into the cell |
